Experimental data reported in patent publication US7332482B2, “Method for treating benign prostatic hyperplasia” (BioXell S.p.A., priority 2003, dated 2008).
“Also recorded” adds a separate entry of the source. Marks after values point to notes of the source that are not given here.

Tests used:
rat ventral prostate = assay: Ventral prostate growth in castrated, T enanthate-supplemented rats; type: in vivo; conditions: castrated rats + T enanthate 30 mg/Kg/week; oral, 9 administrations; Compound A 10-300 μg/Kg, finasteride 10, 40 mg/Kg
Experimental: Male Sprague Dawley rats (28 days old) were purchased from Charles River Laboratories (Calco, Lecco, Italy). All animal experimentation described was conducted in accord with accepted standards of animal care. Castration was performed via the scrotal route under ketamine/xylazine anaesthesia.

bladder = assay: Bladder outlet obstruction (BOO) rat model, cystometry and bladder weight; type: in vivo; conditions: BOO rats, 150 μg/Kg daily, 2 weeks
Experimental: • Female Sprague-Dawley rats, weighing 200-250 g 1.2. Grouping • Group A: BOO rats, treated with Compound A over 2 weeks, beginning at day 1 after creation of the obstruction (n=12) • Group B: BOO rats, treated with vehicle over 2 weeks, beginning at day 1 after creation of the obstruction (n=12) • Group C: Sham operated rats, treated with Compound A over 2 weeks, beginning at day 1 after surgery (n=12) 1.3. Studies: • a) Cystometry (˜18 hours after last administration of the drug/vehicle, 12 hours after removal of the obstructing ligature) under conscious conditions. • b) Measurements of bladder weight • c) In vitro investigations 2. Methods 2.1. Bladder Outlet Obstruction (BOO):
The bladder and urethrovesical junction were exposed through a lower abdominal midline incision. A 0.9 mm metal rod was placed alongside the proximal urethra and a 3-0 silk ligature was tied tightly around the urethra and the rod, which was consequently be removed. Sham surgery was be performed accordingly, without placing the ligature. After 13 days the ligature was be removed and a catheter was be inserted into the bladder dome and tunneled subcutaneously.
The following morning after insertion of the catheter, the cystometric investigation was performed without any anesthesia or restraint in a metabolic cage. The amount of voided urine was measured by means of a fluid collector, connected to a force displacement transducer. The bladder was continuously filled with saline at room temperature. The catheter was also connected to a pressure transducer. After a stabilization period of 30-60 minutes, when reproducible voiding patterns are achieved, the following parameters were recorded over a period of 30 minutes: Basal bladder pressure, micturition pressure, threshold pressure, micturition interval and volume, and non-voiding contractions. The amount of residual urine was investigated manually 3 times, at the end of the cystometry. Bladder capacity was calculated based on the measured values.
The validated bladder outlet obstruction rat model described above was used to test the ability of Compound A to control and treat bladder dysfunction. The objective was to evaluate whether a vitamin D3 analogue (1-alpha-fluoro-25-hydroxy-16,23e-diene-26,27-bishomo-20-epi-cholecalciferol—compound “A”) at the dose of 150 μg/Kg/daily) can prevent bladder hypertrophy and bladder dysfunction such as bladder overactivity.
In this model a ligature was surgically placed around the outlet of the catheterized bladder, so that when the catheter was removed, the bladder experienced increased urethral resistance. The rats underwent continuous cystometry to evaluate bladder function. In addition the contractile properties of isolated bladder preparation in response to nerve stimulation and exogenous stimuli in vitro were investigated under electrical field stimulation (EFS).
The following cystometric parameters were investigated (see FIGS. 12-16): • micturition pressure (the maximum bladder pressure during micturition), • bladder capacity (residual volume after voiding plus the volume of saline infused to induce the void) • micturition volume (volume of the expelled urine) • residual urine (bladder capacity minus micturition volume) and • frequency and amplitude of spontaneously occurring changes intravesical pressure (non-voiding contractions).

BPH cells [1] = assay: BPH cell proliferation assay; type: cell-based, human; conditions: 48 h
Experimental: (§1) Human BPH cells, prepared, maintained and used as previously described in Crescioli C, et al. Journal of Clinical and Endocrinology Metabolism (2000) 85 p 2576-2583, were obtained from prostate tissues derived from 5 patients, who underwent suprapubic adenomectomy for BPH, after informed consent and approval by the Local Ethical Committee.
For all cell proliferation assay, 4×10^4 BPH cells were seeded onto 12-well plates in their growth medium, starved in red- and serum-free medium containing 0.1% BSA for 24 h, and then treated with specific stimuli for 48 h. Cells in phenol red- and serum-free medium containing 0.1% BSA were used as controls. Thereafter, cells were trypsinized, and each experimental point was derived from hemocytometer counting, averaging at least six different fields for each well, as previously reported (see Crescioli C, et al. Journal of Clinical and Endocrinology Metabolism (2000) 85 p 2576-2583). […] Growth assays were also carried out using a fixed concentration of androgens (10 nM) with or without Compound A (1 nM, 10 nM) or the anti-androgens finasteride (F, 1 nM) and cyproterone acetate (Cyp, 100 nM). Growth assays were also performed using a fixed concentration of T (10 nM) or GFs (10 ng/ml) with or without Compound A (10 nM). In the same experiment, each experimental point was repeated in triplicate or quadruplicate and experiments were performed 3 times. Results are expressed as % variation (mean±SEM) over the maximal T or GF-induced stimulation.

BPH cells [2] = assay: In situ end labeling (ISEL) of apoptotic BPH cells; type: cell-based, human
Experimental: as §1
ISEL was performed onto BPH cells using Apop Tag in situ apoptosis detection kit peroxydase following the manufacturer's instruction. Cells were incubated with T (10 nM), KGF (10 ng/ml) or Des(1-3)IGF-I (10 ng/ml) with or without Compound A (10 nM). The percentage of apoptotic cells (the number of stained cells divided by the total number of cells) was calculated in at least five separate fields per slide in five different slides. Results are expressed as mean±SEM from three separate experiments.

SMILES: C=C1/C(=C\C=C2/CCC[C@]3(C)C([C@@H](C)C/C=C/C(O)(CC)CC)=CC[C@@H]23)C[C@@H](O)C[C@@H]1F [Compound A, 1-alpha-fluoro-25-hydroxy-16,23E-diene-26,27-bishomo-20-epi-cholecalciferol]
- effect on T-stimulated prostate over-growth (ventral prostate weight) (rat ventral prostate): completely blunted
- bladder weight (bladder): slight decrease
- micturition pressure (bladder): significant differences versus vehicle
- residual urine (bladder): absent
- spontaneous non-voiding contraction amplitude (bladder): significant differences versus vehicle
- spontaneous non-voiding contraction frequency (bladder): significant differences versus vehicle
- effect on growth of androgen-unstimulated BPH cells (BPH cells [1]; Compound A 1 nM): reduced growth
- effect on DHT-stimulated BPH cell proliferation (BPH cells [1]; DHT 10 nM, Compound A 1 nM, F 1 nM, Cyp 100 nM): antagonized; also recorded: significantly blocked
- effect on T-stimulated BPH cell proliferation (BPH cells [1]; T 10 nM, Compound A 1 nM, F 1 nM, Cyp 100 nM): antagonized; also recorded: significantly blocked
- Imax, inhibition of T- or GF-stimulated BPH cell growth (BPH cells [1]; T 10 nM, KGF or Des(1-3)IGF-I 10 ng/ml): 66.6±7.3%
- maximal inhibition (Imax) of BPH cell growth (BPH cells [1]; unstimulated BPH cells, Imax shared by both secosteroids): 43±1%
- change in percentage of apoptotic nuclei vs untreated cells (BPH cells [2]; 48 h, Compound A 10 nM, T 10 nM, GFs 10 ng/ml): 270%
- Apoptotic index (%) (BPH cells [2]; Compound A 10 nM alone, ISEL): 68.44 ± 1.26^a %
- Apoptotic index (%) (BPH cells [2]; Compound A 10 nM with Des(1-3)IGF-I 10 ng/ml): 45.85 ± 0.66^a,b,c %
- increase in number of ISEL-positive BPH cells in the presence of GFs or T (BPH cells [2]; Compound A 10 nM with GFs or T): more than 250%
- Apoptotic index (%) (BPH cells [2]; Compound A 10 nM with KGF 10 ng/ml): 44.46 ± 0.57^a,b,c %
- Apoptotic index (%) (BPH cells [2]; Compound A 10 nM with T 10 nM): 49.06 ± 1.87^a,b,c %
